Target: Metabotropic glutamate receptor 5 (Homo sapiens) (UniProt P41594)
Assay: Binding affinity to mGluR5 (unknown origin) assessed as association rate constant

Chain of Metabotropic glutamate receptor 5 (Homo sapiens) (P41594 21-1212 limits assumed): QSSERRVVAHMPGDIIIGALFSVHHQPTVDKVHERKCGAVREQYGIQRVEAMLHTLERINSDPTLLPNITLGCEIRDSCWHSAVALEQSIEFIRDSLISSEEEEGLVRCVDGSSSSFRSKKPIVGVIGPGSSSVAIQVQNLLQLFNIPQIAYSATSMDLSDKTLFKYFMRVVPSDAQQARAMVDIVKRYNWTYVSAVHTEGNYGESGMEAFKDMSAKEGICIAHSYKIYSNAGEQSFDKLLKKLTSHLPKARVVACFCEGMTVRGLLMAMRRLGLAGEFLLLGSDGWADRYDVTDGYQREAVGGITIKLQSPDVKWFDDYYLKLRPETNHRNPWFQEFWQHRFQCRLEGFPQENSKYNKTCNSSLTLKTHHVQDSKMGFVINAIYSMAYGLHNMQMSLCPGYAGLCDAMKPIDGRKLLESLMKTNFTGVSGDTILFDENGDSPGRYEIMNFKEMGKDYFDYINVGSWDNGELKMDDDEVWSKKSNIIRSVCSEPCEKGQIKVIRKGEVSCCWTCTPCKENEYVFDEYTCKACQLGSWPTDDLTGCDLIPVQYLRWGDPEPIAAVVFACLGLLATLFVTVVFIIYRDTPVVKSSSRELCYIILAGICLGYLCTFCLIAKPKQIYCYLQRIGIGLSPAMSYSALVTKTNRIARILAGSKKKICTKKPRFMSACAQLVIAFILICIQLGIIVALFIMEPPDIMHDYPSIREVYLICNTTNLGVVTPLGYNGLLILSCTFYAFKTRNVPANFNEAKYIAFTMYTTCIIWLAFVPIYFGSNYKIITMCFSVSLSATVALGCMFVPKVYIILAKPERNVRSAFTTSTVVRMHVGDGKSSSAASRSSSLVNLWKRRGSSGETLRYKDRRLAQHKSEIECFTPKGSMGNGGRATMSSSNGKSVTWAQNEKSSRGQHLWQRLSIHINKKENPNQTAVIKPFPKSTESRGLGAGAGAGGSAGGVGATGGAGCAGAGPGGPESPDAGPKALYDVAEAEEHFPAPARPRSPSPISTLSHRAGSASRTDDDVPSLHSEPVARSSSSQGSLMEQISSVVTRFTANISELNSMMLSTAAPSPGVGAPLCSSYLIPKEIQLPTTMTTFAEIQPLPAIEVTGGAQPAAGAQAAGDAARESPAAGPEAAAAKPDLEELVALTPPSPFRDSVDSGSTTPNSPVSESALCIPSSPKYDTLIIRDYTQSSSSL

O=C(Nc1ccc(-c2ccn3c(CC4CC4)nnc3c2C(F)(F)F)cc1)c1ccc(S(=O)(=O)F)cc1
K: 3.2 ×10³ /M/s
